Results reported in paper PMC11579541, “In vitro, in vivo, and in silico approaches for evaluating the preclinical DMPK profiles of ammoxetine, a novel chiral serotonin and norepinephrine reuptake inhibitor” (Frontiers in Pharmacology, 2024).
Read-outs that look alike come from different tables or passages of the source.

Experiments:
[1] = Configurational stability study (in vivo chiral inversion); design: species or system SD rats; conditions: rat plasma 2 h after 50 mg/kg oral, chiral HPLC
Protocol: Twelve SD rats were divided into three groups: a blank control group, an S-071031B group (50 mg/kg), and an R-071031B group (50 mg/kg). Prior to administration, the animals underwent a 12-h fasting period while having access to water. At 2 h post-dosing, the rats were anesthetized, and blood samples were collected from the abdominal aorta into heparinized tubes. Plasma samples were obtained by centrifuging the collected blood at 2,000×g for 10 min to remove blood cells. Subsequently, 1 mL of plasma sample was mixed with 100 μL of 0.1% sodium hydroxide solution and 4 mL of ether. After centrifugation at 2,000×g for 10 min, the upper organic phase within each group was combined, transferred to a new tube, and dried under a stream of nitrogen. The resulting residues were reconstituted with 100 μL of methanol for subsequent HPLC analysis.
A chiral chromatographic column was employed to separate the enantiomers, and the RT of X-071031B (racemic 071031B) and S-071031B (ammoxetine) standards were determined for identification. Plasma samples were collected from rats 2 h after oral administration of 50 mg/kg of S-071031B or R-071031B. The presence of a chromatographic peak at the RT corresponding to the opposite enantiomer following the administration of the S-isomer would indicate the conversion of the S-isomer to the R-isomer in rats. […]

PK study in rats = assay type: in vivo, SD rats; conditions: rat, plasma; for CL/F: read-out: CLz/F (converted); for MRT last: read-out: MRT(0-t); for MRT inf: read-out: MRT(0-∞); for Vd/F: read-out: Vz/F; for half-life: read-out: t1/2z (converted)
Protocol: For the PK studies in rats and dogs, a total of 18 SD rats and 15 male beagle dogs were randomly divided into three groups, with six rats or five dogs per group, respectively. Prior to the experiments, all animals underwent a 12-h fasting period, while having free access to water. The animals were administered single oral doses of ammoxetine in three different dose levels: 8 mg/kg, 20 mg/kg, and 50 mg/kg for rats, and 2 mg/kg, 5 mg/kg, and 12.5 mg/kg for dogs, representing low, medium, and high doses. Serial blood samples were collected from the rats at 0, 2, 5, 15, and 30 min, as well as 1, 2, 4, 6, 8, 12, and 24 h post-dosing. For the dogs, blood samples were collected at 0, 5, 15, 30, and 45 min, as well as 1, 2, 4, 6, 8, 12, and 24 h post-dosing. Approximately 0.3 mL of blood was collected from the rats, while 2 mL of blood was collected from the dogs. The blood samples were collected into heparinized tubes. Following centrifugation, plasma samples were obtained and stored at −30°C until further analysis.
To determine the concentration of ammoxetine, 100 μL of L-phencynonate (IS, 50 ng/mL) and 300 μL of methanol were added to 100 μL of plasma samples from rats or dogs. After thorough vortexing, the mixture was centrifuged at 13,800×g for 10 min. The supernatants were then subjected to analysis using LC-MS-MS methods. PK parameters were calculated using DAS (Drug And Statistics for Windows) version 2.0, developed by the Shanghai University of Traditional Chinese Medicine, Shanghai, China. The F was determined by comparing the plasma area under the concentration-time curve (AUC) values after oral (p.o.) and intravenous (i.v.) administration of ammoxetine. F was calculated using the formula: F=AUCp.o./AUCi.v.×100% . Statistical analyses were performed using OriginPro 8.6 software. Paired sample or student’s t-test, as well as one-way ANOVA, were employed to compare the means of two or three groups, with a significance level set at p < 0.05.

[2] = Stability of ammoxetine in rat plasma (method validation); assay type: in vitro ADME
Protocol: LC-MS-MS methods were developed and validated to accurately quantify ammoxetine in rat and beagle dog plasma, as well as in rat tissues, urine, feces, and bile. The methods involved direct protein precipitation using methanol, providing a straightforward and rapid sample preparation process with high extraction recovery rates (absolute recoveries >85% in all matrices). […] The precision and accuracy of the plasma methods were evaluated through intra-day and inter-day analyses, yielding satisfactory results. Additionally, stability tests conducted in rat and beagle dog plasma met the analytical requirements for determination. Furthermore, the majority of the analytes met the necessary criteria for matrix effects when quantifying ammoxetine in biological samples. The developed methods are well-suited for determining ammoxetine concentrations in rat and beagle dog biological samples, enabling in vivo studies of this compound. They provide specific and highly sensitive quantification, facilitating investigations into the drug’s behavior in vivo. Detailed results regarding the establishment and validation of these analytical methods can be found in Supplementary Data Sheet 2.

## CNCC[C@H](Oc1cccc2c1OCO2)c1cccs1 [ammoxetine]
[1]
  chiral inversion in vivo: does not undergo conversion to R-071031B
PK study in rats; SD, 8 mg/kg single oral dose
  AUC(0-inf): 1.37 µg·h/mL
  AUC(0-t): 1.37 µg·h/mL
  Cmax: 0.287 ± 0.0508 µg/mL
  CL/F: 6.01 L/h/kg
  MRT last: 4.38 ± 0.47 h
  MRT inf: 4.49 ± 0.44 h
  Vd/F: 24.4 ± 4.48 L/kg
  half-life: 2.87 ± 0.59 h
PK study in rats; SD, 8 mg/kg single oral dose, read-out: Tmax
  Tmax: 0.75 ± 0.27 h
PK study in rats; SD, 20 mg/kg single oral dose
  AUC(0-inf): 3.4 µg·h/mL
  AUC(0-t): 3.2 µg·h/mL
  Cmax: 0.4 ± 0.246 µg/mL
  CL/F: 6.49 L/h/kg
  MRT last: 6.73 ± 1.25 h
  MRT inf: 8.57 ± 3.58 h
  Vd/F: 53.5 ± 29 L/kg
  half-life: 5.61 ± 2.59 h
PK study in rats; SD, 20 mg/kg single oral dose, read-out: Tmax
  Tmax: 1.58 ± 1.39 h
PK study in rats; SD, 50 mg/kg single oral dose
  AUC(0-inf): 12.9 µg·h/mL
  AUC(0-t): 11 µg·h/mL
  Cmax: 0.987 ± 0.362 µg/mL
  CL/F: 4.34 L/h/kg
  MRT last: 7.74 ± 0.52 h
  MRT inf: 11.8 ± 7.34 h
  Vd/F: 40.3 ± 16.4 L/kg
  half-life: 7.51 ± 5.7 h
PK study in rats; SD, 50 mg/kg single oral dose, read-out: Tmax
  Tmax: 3.83 ± 2.7 h
PK study in rats; Sprague-Dawley (SD), oral 8, 20 and 50 mg/kg, read-out: Tmax values, range
  Tmax: 0.75 to 3.83 h
[2]; 5 ng/mL, -30℃ for 15d
  Stability in rat plasma, Measured (%): 106.00±2.00%
[2]; 5 ng/mL, in auto-sampler for 24h
  Stability in rat plasma, Measured (%): 114.00±10.00%
[2]; 5 ng/mL, room temperature for 4h
  Stability in rat plasma, Measured (%): 94.00±6.00%
[2]; 100 ng/mL, -30℃ for 15d
  Stability in rat plasma, Measured (%): 105.90±8.30%
[2]; 100 ng/mL, in auto-sampler for 24h
  Stability in rat plasma, Measured (%): 111.20±5.90%
[2]; 100 ng/mL, room temperature for 4h
  Stability in rat plasma, Measured (%): 108.90±7.40%
[2]; 800 ng/mL, -30℃ for 15d
  Stability in rat plasma, Measured (%): 111.74±2.73%
[2]; 800 ng/mL, in auto-sampler for 24h
  Stability in rat plasma, Measured (%): 106.49±0.78%
[2]; 800 ng/mL, room temperature for 4h
  Stability in rat plasma, Measured (%): 114.33±0.73%
